The kinase profiling compilation of Christmann-Franck et al. (2016)

Legend:
Experiment in all cases: radiometric filter-binding kinase assay, Kinase HotSpot
Conditions in all cases: compound 0.5 µM; ATP 10 µM
MAPK8 (human) = MAPK8 (human) (UniProt P45983)
CAMK1 (human) = CAMK1 (human) (UniProt Q14012)
MINK1 (human) = MINK1 (human) (UniProt Q8N4C8)
ADRBK2 (human) = ADRBK2 (human) (UniProt P35626)
[1] = target: JAK1 JH1 catalytic (human) (UniProt P23458)
DYRK1A (human) = DYRK1A (human) (UniProt Q13627)
TAOK3 (human) = TAOK3 (human) (UniProt Q9H2K8)
NLK (human) = NLK (human) (UniProt Q9UBE8)
PTK2B (human) = PTK2B (human) (UniProt Q14289)
DYRK4 (human) = DYRK4 (human) (UniProt Q9NR20)
DYRK2 (human) = DYRK2 (human) (UniProt Q92630)
IRAK4 (human) = IRAK4 (human) (UniProt Q9NWZ3)
Sequence of IRAK4 (human) (Q9NWZ3 whole entry, looked up): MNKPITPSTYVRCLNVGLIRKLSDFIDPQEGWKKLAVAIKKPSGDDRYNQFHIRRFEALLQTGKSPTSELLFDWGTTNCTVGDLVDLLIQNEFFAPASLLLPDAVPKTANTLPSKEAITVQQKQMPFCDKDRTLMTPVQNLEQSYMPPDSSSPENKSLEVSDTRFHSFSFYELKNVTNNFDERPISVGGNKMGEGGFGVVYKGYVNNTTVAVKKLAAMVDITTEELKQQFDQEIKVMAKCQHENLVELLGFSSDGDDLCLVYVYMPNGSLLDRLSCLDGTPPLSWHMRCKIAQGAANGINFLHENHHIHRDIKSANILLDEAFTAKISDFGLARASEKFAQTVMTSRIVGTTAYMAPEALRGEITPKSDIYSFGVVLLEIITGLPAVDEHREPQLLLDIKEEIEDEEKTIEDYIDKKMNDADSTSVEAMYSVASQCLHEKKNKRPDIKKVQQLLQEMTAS

STK24 (human) = STK24 (human) (UniProt Q9Y6E0)
SRPK2 (human) = SRPK2 (human) (UniProt P78362)
AKT3 (human) = AKT3 (human) (UniProt Q9Y243)
Sequence of AKT3 (human) (Q9Y243 whole entry, looked up): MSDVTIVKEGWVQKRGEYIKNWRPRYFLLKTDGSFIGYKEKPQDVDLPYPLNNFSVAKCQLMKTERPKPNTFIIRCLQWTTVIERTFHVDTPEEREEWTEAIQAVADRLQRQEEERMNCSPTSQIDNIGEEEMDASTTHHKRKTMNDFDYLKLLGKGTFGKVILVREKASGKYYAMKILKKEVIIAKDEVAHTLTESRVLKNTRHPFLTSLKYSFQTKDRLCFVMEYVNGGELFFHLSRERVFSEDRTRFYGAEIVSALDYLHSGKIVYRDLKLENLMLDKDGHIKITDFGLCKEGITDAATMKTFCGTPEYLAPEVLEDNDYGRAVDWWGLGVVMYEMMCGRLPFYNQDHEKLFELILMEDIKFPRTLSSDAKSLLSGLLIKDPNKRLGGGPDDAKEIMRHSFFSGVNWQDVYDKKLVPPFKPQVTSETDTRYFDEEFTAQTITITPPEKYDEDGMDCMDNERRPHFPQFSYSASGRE

MYLK (human) = MYLK (human) (UniProt Q15746)
CHUK (human) = CHUK (human) (UniProt O15111)
ADRBK1 (human) = ADRBK1 (human) (UniProt P25098)
SRPK1 (human) = SRPK1 (human) (UniProt Q96SB4)
DSTYK (human) = DSTYK (human) (UniProt Q6XUX3)
NEK7 (human) = NEK7 (human) (UniProt Q8TDX7)
IRAK1 (human) = IRAK1 (human) (UniProt P51617)
FER (human) = FER (human) (UniProt P16591)
ERBB2 (human) = ERBB2 (human) (UniProt P04626)
PIM2 (human) = PIM2 (human) (UniProt Q9P1W9)
Sequence of PIM2 (human) (Q9P1W9 whole entry, looked up): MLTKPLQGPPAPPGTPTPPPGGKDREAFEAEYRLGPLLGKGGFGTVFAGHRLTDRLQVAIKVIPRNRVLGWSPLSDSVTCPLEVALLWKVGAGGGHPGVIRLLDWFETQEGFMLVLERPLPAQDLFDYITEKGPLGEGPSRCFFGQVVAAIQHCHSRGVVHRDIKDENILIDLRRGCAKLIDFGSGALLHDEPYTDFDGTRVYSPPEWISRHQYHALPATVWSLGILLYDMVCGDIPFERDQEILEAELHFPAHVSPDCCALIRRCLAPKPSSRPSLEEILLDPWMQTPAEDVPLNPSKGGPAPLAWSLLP

MAPK14 (human) = MAPK14 (human) (UniProt Q16539)
Sequence of MAPK14 (human) (Q16539 whole entry, looked up): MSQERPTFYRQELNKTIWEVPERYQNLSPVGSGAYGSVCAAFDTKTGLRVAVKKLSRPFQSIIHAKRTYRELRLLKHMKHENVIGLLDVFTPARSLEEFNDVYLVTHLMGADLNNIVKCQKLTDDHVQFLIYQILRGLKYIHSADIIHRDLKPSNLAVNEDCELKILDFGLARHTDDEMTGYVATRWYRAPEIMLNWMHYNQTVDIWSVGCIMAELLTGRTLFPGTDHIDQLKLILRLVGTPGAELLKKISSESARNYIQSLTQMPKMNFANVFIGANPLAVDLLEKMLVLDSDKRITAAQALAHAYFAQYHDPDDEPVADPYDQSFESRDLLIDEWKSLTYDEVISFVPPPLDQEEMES

STK33 (human) = STK33 (human) (UniProt Q9BYT3)
CDK6 CCND1 (human) = CDK6 CCND1 (human) (UniProt Q00534+P24385)
PTK2 (human) = PTK2 (human) (UniProt Q05397)
CAMK1G (human) = CAMK1G (human) (UniProt Q96NX5)
CDK9 CCNK (human) = CDK9 CCNK (human) (UniProt O75909+P50750)
Sequence of CDK9 CCNK (human) (O75909 whole entry, looked up): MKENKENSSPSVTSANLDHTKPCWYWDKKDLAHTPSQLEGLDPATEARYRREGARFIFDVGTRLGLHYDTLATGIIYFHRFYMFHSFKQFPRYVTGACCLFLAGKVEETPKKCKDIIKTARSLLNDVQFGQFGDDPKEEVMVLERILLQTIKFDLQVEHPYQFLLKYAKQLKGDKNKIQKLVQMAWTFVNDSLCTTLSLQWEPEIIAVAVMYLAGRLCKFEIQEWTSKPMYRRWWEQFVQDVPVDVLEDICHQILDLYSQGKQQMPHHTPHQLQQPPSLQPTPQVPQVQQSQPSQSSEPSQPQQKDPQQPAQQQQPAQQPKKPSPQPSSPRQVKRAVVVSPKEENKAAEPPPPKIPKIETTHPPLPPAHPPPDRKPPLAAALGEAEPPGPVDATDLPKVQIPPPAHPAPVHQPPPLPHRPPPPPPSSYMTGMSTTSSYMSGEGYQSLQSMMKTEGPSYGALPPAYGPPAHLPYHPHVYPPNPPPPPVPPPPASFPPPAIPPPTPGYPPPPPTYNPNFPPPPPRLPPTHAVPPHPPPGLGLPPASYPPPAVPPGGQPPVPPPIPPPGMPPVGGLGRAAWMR
Sequence of CDK9 CCNK (human) (P50750 whole entry, looked up): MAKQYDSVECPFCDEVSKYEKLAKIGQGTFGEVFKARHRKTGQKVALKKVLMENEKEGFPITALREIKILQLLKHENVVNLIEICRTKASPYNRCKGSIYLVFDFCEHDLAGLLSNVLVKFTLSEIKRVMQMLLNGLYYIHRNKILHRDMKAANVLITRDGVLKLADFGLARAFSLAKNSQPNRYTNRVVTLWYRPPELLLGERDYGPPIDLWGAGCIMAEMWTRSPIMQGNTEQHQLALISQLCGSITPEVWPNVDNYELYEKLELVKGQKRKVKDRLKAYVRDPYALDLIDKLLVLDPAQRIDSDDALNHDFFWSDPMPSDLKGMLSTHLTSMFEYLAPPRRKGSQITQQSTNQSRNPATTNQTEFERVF

CDK7 CCNH MNAT1 (human) = CDK7 CCNH MNAT1 (human) (UniProt P50613+P51948+P51946)
FGR (human) = FGR (human) (UniProt P09769)
Sequence of FGR (human) (P09769 whole entry, looked up): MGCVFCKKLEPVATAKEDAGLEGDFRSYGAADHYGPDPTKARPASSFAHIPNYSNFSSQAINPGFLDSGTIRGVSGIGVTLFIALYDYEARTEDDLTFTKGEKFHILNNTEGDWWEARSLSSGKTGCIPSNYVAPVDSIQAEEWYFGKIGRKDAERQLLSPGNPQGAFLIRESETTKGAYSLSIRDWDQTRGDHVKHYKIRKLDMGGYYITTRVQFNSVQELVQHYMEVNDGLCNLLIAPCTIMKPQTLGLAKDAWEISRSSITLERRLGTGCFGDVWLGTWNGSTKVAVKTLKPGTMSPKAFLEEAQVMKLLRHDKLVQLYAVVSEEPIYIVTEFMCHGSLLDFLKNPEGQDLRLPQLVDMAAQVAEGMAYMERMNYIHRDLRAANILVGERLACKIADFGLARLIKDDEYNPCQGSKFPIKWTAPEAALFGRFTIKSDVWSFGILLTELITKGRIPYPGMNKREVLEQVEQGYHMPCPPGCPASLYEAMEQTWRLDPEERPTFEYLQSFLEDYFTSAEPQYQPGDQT

EPHA2 (human) = EPHA2 (human) (UniProt P29317)
BLK (human) = BLK (human) (UniProt P51451)
FGFR1 (human) = FGFR1 (human) (UniProt P11362)
DAPK3 (human) = DAPK3 (human) (UniProt O43293)
NEK3 (human) = NEK3 (human) (UniProt P51956)
PAK7 (human) = PAK7 (human) (UniProt Q9P286)
Sequence of PAK7 (human) (Q9P286 whole entry, looked up): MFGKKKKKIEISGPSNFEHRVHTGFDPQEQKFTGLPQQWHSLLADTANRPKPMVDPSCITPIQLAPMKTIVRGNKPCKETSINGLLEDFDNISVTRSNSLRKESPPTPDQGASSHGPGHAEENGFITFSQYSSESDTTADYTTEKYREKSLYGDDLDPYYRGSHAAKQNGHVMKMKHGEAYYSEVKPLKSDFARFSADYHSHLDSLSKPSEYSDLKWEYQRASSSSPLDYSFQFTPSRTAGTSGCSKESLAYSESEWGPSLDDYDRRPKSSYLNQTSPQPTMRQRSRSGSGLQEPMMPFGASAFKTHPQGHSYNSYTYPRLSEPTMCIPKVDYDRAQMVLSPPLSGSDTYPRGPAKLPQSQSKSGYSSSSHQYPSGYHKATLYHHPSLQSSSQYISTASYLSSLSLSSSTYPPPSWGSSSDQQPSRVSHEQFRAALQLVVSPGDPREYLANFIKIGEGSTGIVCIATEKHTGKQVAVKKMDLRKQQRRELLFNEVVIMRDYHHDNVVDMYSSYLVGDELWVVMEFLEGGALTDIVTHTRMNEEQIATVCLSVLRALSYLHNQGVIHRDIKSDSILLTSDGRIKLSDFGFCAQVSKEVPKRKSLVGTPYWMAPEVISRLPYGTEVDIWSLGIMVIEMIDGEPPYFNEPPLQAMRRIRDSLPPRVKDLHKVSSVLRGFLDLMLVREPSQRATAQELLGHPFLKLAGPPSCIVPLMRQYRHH

MAPK12 (human) = MAPK12 (human) (UniProt P53778)
MST4 (human) = MST4 (human) (UniProt Q9P289)
CSF1R (human) = CSF1R (human) (UniProt P07333)

Sequence of CAMK1 (human) (Q14012 whole entry, looked up): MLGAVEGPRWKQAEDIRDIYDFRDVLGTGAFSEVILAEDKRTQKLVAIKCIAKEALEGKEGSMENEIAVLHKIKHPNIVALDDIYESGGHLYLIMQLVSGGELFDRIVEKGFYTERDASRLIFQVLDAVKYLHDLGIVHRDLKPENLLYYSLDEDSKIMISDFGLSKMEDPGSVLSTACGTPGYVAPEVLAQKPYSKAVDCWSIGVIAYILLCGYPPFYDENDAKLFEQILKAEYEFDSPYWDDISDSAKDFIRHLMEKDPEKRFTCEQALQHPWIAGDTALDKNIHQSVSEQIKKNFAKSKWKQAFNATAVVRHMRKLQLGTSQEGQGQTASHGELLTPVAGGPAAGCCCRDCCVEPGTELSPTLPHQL
Sequence of ADRBK2 (human) (P35626 whole entry, looked up): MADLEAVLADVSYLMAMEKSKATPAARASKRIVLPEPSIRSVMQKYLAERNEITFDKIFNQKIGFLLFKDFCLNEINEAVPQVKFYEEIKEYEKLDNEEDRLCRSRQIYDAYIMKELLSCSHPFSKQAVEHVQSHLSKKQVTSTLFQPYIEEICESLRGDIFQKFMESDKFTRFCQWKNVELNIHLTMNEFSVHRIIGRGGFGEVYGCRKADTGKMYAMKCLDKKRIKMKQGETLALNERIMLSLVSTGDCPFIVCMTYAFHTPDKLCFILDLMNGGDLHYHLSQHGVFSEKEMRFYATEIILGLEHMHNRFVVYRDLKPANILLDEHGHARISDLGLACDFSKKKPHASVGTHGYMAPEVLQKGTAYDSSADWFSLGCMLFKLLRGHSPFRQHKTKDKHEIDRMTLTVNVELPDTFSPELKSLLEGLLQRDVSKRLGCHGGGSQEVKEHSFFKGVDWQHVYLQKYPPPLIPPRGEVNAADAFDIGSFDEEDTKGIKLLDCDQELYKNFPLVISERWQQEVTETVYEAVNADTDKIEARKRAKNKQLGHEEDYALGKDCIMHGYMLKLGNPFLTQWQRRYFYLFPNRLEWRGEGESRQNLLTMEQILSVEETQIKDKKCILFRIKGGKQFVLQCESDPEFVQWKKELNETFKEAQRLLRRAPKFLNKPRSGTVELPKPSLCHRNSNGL

## CNC(=O)c1cc(Oc2ccc(NC(=O)Nc3ccc(Cl)c(C(F)(F)F)c3)cc2)ccn1
MAPK8 (human)
  residual activity: 92.8%
CAMK1 (human)
  residual activity: 106%
MINK1 (human)
  residual activity: 108%
ADRBK2 (human)
  residual activity: 98.4%
[1]
  residual activity: 110%
DYRK1A (human)
  residual activity: 103%
TAOK3 (human)
  residual activity: 63.5%
NLK (human)
  residual activity: 99.1%
PTK2B (human)
  residual activity: 101%
DYRK4 (human)
  residual activity: 105%
DYRK2 (human)
  residual activity: 98.9%
IRAK4 (human)
  residual activity: 99.6%
STK24 (human)
  residual activity: 110%
SRPK2 (human)
  residual activity: 102%
AKT3 (human)
  residual activity: 94.2%
MYLK (human)
  residual activity: 93.7%
CHUK (human)
  residual activity: 99.8%
ADRBK1 (human)
  residual activity: 112%
SRPK1 (human)
  residual activity: 98.6%
DSTYK (human)
  residual activity: 97.7%
NEK7 (human)
  residual activity: 98.2%
IRAK1 (human)
  residual activity: 101%
FER (human)
  residual activity: 101%
ERBB2 (human)
  residual activity: 103%
PIM2 (human)
  residual activity: 103%
MAPK14 (human)
  residual activity: 40.2%
STK33 (human)
  residual activity: 83.9%
CDK6 CCND1 (human)
  residual activity: 91.8%
PTK2 (human)
  residual activity: 102%
CAMK1G (human)
  residual activity: 107%
CDK9 CCNK (human)
  residual activity: 101%
CDK7 CCNH MNAT1 (human)
  residual activity: 102%
FGR (human)
  residual activity: 88.7%
EPHA2 (human)
  residual activity: 83.8%
BLK (human)
  residual activity: 99.1%
FGFR1 (human)
  residual activity: 90.9%
DAPK3 (human)
  residual activity: 92.9%
NEK3 (human)
  residual activity: 97.2%
PAK7 (human)
  residual activity: 95.9%
MAPK12 (human)
  residual activity: 94.2%
MST4 (human)
  residual activity: 101%

## Cc1ccc(Nc2nccc(N(C)c3ccc4c(C)n(C)nc4c3)n2)cc1S(N)(=O)=O
CAMK1 (human)
  residual activity: 87.4%
MINK1 (human)
  residual activity: 73.7%
ADRBK2 (human)
  residual activity: 99.3%
[1]
  residual activity: 104%
TAOK3 (human)
  residual activity: 55.5%
NLK (human)
  residual activity: 69%
PTK2B (human)
  residual activity: 92%
DYRK4 (human)
  residual activity: 106%
DYRK2 (human)
  residual activity: 98.8%
IRAK4 (human)
  residual activity: 98.4%
STK24 (human)
  residual activity: 106%
SRPK2 (human)
  residual activity: 104%
AKT3 (human)
  residual activity: 93.3%
MYLK (human)
  residual activity: 93%
CHUK (human)
  residual activity: 99.4%
ADRBK1 (human)
  residual activity: 90.3%
SRPK1 (human)
  residual activity: 100%
DSTYK (human)
  residual activity: 94.3%
NEK7 (human)
  residual activity: 101%
IRAK1 (human)
  residual activity: 97%
FER (human)
  residual activity: 81.3%
ERBB2 (human)
  residual activity: 103%
PIM2 (human)
  residual activity: 101%
MAPK14 (human)
  residual activity: 91.2%
STK33 (human)
  residual activity: 87.1%
CDK6 CCND1 (human)
  residual activity: 96.5%
PTK2 (human)
  residual activity: 76%
CDK9 CCNK (human)
  residual activity: 92.7%
CDK7 CCNH MNAT1 (human)
  residual activity: 103%
FGR (human)
  residual activity: 35.8%
EPHA2 (human)
  residual activity: 85.7%
BLK (human)
  residual activity: 75.6%
DAPK3 (human)
  residual activity: 92.3%
NEK3 (human)
  residual activity: 94.2%
PAK7 (human)
  residual activity: 95.4%
MAPK12 (human)
  residual activity: 93.7%
MST4 (human)
  residual activity: 108%

## c1ccc(-c2n[nH]cc2-c2ccnc3ccccc23)nc1
CAMK1 (human)
  residual activity: 96.1%
MINK1 (human)
  residual activity: 84.1%
ADRBK2 (human)
  residual activity: 103%
[1]
  residual activity: 96.7%
DYRK1A (human)
  residual activity: 90.9%
TAOK3 (human)
  residual activity: 92.8%
NLK (human)
  residual activity: 79.8%
PTK2B (human)
  residual activity: 96.1%
DYRK4 (human)
  residual activity: 104%
CSF1R (human)
  residual activity: 95.5%
DYRK2 (human)
  residual activity: 113%
IRAK4 (human)
  residual activity: 87.7%
STK24 (human)
  residual activity: 96.8%
SRPK2 (human)
  residual activity: 97.2%
AKT3 (human)
  residual activity: 92.6%
MYLK (human)
  residual activity: 105%
CHUK (human)
  residual activity: 94.2%
ADRBK1 (human)
  residual activity: 101%
SRPK1 (human)
  residual activity: 98.4%
DSTYK (human)
  residual activity: 98.3%
NEK7 (human)
  residual activity: 102%
IRAK1 (human)
  residual activity: 124%
FER (human)
  residual activity: 86%
ERBB2 (human)
  residual activity: 106%
PIM2 (human)
  residual activity: 115%
MAPK14 (human)
  residual activity: 96%
STK33 (human)
  residual activity: 92.9%
CDK6 CCND1 (human)
  residual activity: 91.1%
PTK2 (human)
  residual activity: 99.3%
CAMK1G (human)
  residual activity: 102%
CDK9 CCNK (human)
  residual activity: 98.7%
CDK7 CCNH MNAT1 (human)
  residual activity: 104%
FGR (human)
  residual activity: 91.9%
EPHA2 (human)
  residual activity: 103%
BLK (human)
  residual activity: 99.9%
FGFR1 (human)
  residual activity: 94.2%
DAPK3 (human)
  residual activity: 101%
NEK3 (human)
  residual activity: 90.2%
PAK7 (human)
  residual activity: 97.1%
MAPK12 (human)
  residual activity: 106%
MST4 (human)
  residual activity: 83.4%
